Patent US4902685A, “2-amino-3-cyano-bicyclic pyridines/pyrazines as inhibitors of interleukin 1” (American Home Products Corporation, priority 1988, dated 1990)

System: IL 1-induced release of neutral protease from rabbit articular chondrocytes
Test: inhibition of IL 1-induced release of neutral protease from rabbit articular chondrocytes (azocoll assay)
Format: cell-based
Settings: Oryctolagus cuniculus, Chondrocyte; dose 1 μM; human IL 1; 24 h; relative to vehicle-treated chondrocytes; read-out: % Inhibition (I.S.D.)
Experimental: The ability of the compounds of the inventions to inhibit interleukin 1 is measured by the ability of the test compounds to inhibit the IL 1-induced release of neutral protease from rabbit articular chondrocytes.
This assay is carried out as follows:
Isolation of rabbit chondrocytes:
Male New Zealand White rabbits are anesthetized with 50 mg/kg of ketamine (i.m.) and killed by an intracardiac injection of 3 mls. of Nembutal. The knee joints of both legs are resected and the articular surfaces are exposed. Cartilate slices are obtained using a scalpel and are placed in a tissue culture dish (100 mm diameter) containing 10 mls of Hank's balanced salt solution (HBSS). The chrondrocytes within the cartilage slices are then liberated by a series of enzyme digestions. The slices are incubated for 10 min. at 37° C. in 0.05% hyaluronidase (Sigma H-3884), rinsed with HBSS and incubated with 0.2% trypsin (Sigma T-2395)for 10 min. at 37° C. The slices are rinsed again and incubated for 10 mins. at 37° C. with 1.2% collagenase (Sigma C-5138). The slices are then rinsed again with HBSS and resuspended in 10 ml of Ham's F-12 medium containing 10% fetal bovine calf serum (FCS) and 0.2% collagenase and incubated overnight at 37° C. in a 5% CO2 incubator. The next day, the medium containing the digested cartilage fragments and liberated chondrocytes is transferred to a 15 ml centrifuge tube and the cells are collected by centrifugation and washed twice and resuspended in Ham's F-12 medium. The cells are then placed into 24-well tissue culture plates (2×10^5 cells/well) and incubated at 37° C. until confluent (usually 4-6 days).
Stimulation of chondrocytes and drug treatment:
The confluent chondrocytes are rinsed twice with serum-free Ham's F-12 medium and 1 ml is added to each well. Fifty μl of purified human IL 1 (100 Units/ml; Genzyme Corporation, Boston, MA) is then added to stimulate these cells to secrete neutral protease. To measure drug effects, the cells are treated with test compound 10 min. prior to addition of IL 1. The standard screening dose is 10 μM. Twenty-four hours after IL 1 stimulation, supernatant fluids are collected and assayed for neutral protease activity.
The neutral protease activity of chrondrocyte supernatant fluids is determined by their ability to degrade an insoluble protease substrate, azocoll (Sigma). Supernatants are treated for 10 min. at room temperature with 350 μM p-aminophenylmercuric acetate to activate the latent enzyme. Three hundred μl of supernatant is then mixed with 500 μl of a 20 mg/ml suspension of azocoll and incubated at 37° C. for 18-24 hrs. with gentle rocking. The mixtures are centrifuged and the amount of substrate hydrolyzed is determined by measuring the absorbance of the supernatant at 520 nm.
Drug effects are calculated as the % change in enzyme activity (absorbance)by supernatants from drug-treated chrondrocytes relative to enzyme activity of supernatants from vehicle-treated chondrocytes as follows: [formula]

Structure (SMILES) | inhibition at 1 µM [%]
N#Cc1cc2c(nc1N)CCCC2 [Example 5, 2-Amino-5,6,7,8-tetrahydro-3-quinolinecarbonitrile] | 60

Same assay, conditions: Oryctolagus cuniculus, Chondrocyte; dose 10 μM; human IL 1; 24 h; relative to vehicle-treated chondrocytes; read-out: % Inhibition (I.S.D.)

Structure (SMILES) | inhibition at 10 µM [%]
N#Cc1ccc(N2CCc3nc(N)c(C#N)cc3C2)cc1 [Example 1, 2-Amino-6-(4-cyanophenyl)-5,6,7,8-tetrahydro-1,6-naphthyridine-3-carbonitrile] | 18
N#Cc1ccc(N2CCc3nc(N)c(C#N)nc3C2)cc1 [Example 2, 2-Amino-6-(4-cyanophenyl)-5,6,7,8-tetrahydropyrido[3,4-b]pyrazine-3-carbonitrile] | 37
CS(=O)(=O)c1ccc(N2CCc3nc(N)c(C#N)cc3C2)cc1 [Example 3, 2-Amino-5,6,7,8-tetrahydro-6-[4-(methylsulfonyl)phenyl]-1,6-naphthyridine-3-carbonitrile] | 59
N#Cc1nc2c(nc1N)CCCC2 [Example 4, 2-Amino-5,6,7,8-tetrahydro-3-quinoxalinecarbonitrile] | 41
N#Cc1cc2c(nc1N)CCCC2 [Example 5, 2-Amino-5,6,7,8-tetrahydro-3-quinolinecarbonitrile] | 59
